# PubChem BioAssay AID1919000 (Molecular Pharmacology Branch, DTP, NCI, 2023)
# Several values for one entry are separate records, joined by “and”; a condition that tells them apart may be missing. Equal values may be shown once.
# System: 653999-131-R-J2-PDC complex spheroids, growth % test/control
# Assay: Anticancer human tumor 653999-131-R-J2-PDC patient-derived lung adenocarcinoma cell line growth inhibition [AhR]
# Conditions: for viability, T/C: stronger effect = lower value
# From the text: Multicellular complex tumor spheroid response to aryl hydrocarbon receptor antagonists in combination with a variety of drugs and investigational agents in selected tumor cell lines
# The current study was undertaken to assess response to aryl hydrocarbon receptor antagonists in combination with standard-of-care drugs and investigational agents in solid tumor complex spheroid models. Complex spheroids include a stromal component modeled by human endothelial cells (HUVEC) and fibroblasts modeled by human mesenchymal stem cells (MSCs). The concentration ranges selected for each drug and investigational agent were based upon clinically achievable concentrations if the clinical Cmax of the agent was known.
# Compounds. The drugs and investigational agents: BAY 2416964 (NSC825713), GNF351 (NSC835774), CH-223191 (NSC835775), CPI-455 (NSC825282), aza-TdCyd (NSC777586), decitabine (NSC127716), belinostat (NSC758774), entinostat (NSC756642), pevonedistat (NSC761192), tazemetostat (NSC777109), talazoparib (NSC765396), olaparib (NSC753686), selinexor (NSC780203), nedisertib (M3814, NSC802822), bortezomib (NSC756655), venetoclax (NSC766270), doxorubicin (NSC123127), elimusertib (BAY189344, NSC800525), ceralasertib (AZD6738, NSC777638), TAK-243 (NSC785004), alisertib (NSC759677), etoposide (NSC141540), topotecan (NSC609699), eribulin (NSC707389), gemcitabine (NSC613327), carboplatin (NSC241240), cisplatin (NSC119875), and SN-38 (NSC673596) were obtained from the National Cancer Institute (NCI) Developmental Therapeutics Program Chemical Repository (32). The FDA-approved anticancer drug set is available from the Developmental Therapeutics Program at https://dtp.cancer.gov/organization/dscb/obtaining/available plates.htm. […] The stock solutions were prepared in dimethyl sulfoxide (DMSO, Sigma-Aldrich, St. Louis, MO, cat. D2650), except for the platinum compounds which were prepared in saline (Quality Biological, Gaithersburg, MD, cat. 114-055-101), at 800-fold the tested concentration and stored at -70 degrees C prior to their use. All drugs and investigational agents were tested over a range starting from a high concentration at or near the clinical Cmax and decreasing in half-log increments. If the clinical Cmax for an agent had not been determined, the highest concentration tested was 10 microM (Table 1).
# Cell Culture. All cells were maintained in an incubator at 37 degrees C and 5% CO2 with 95% humidity. The PDC lines were cultured according to standard operating procedures established by the NCI PDMR (https://pdmr.cancer.gov). Briefly, all PDCs were thawed and cultured in Matrigel-coated flasks prepared with a working solution of 1X Ham's F-12 nutrient mix, without supplementation (Invitrogen, Waltham, MA, cat. 11765054), 100 U/mL penicillin-streptomycin (Invitrogen, cat. 15140122), and 2.5% Matrigel (Corning Inc., Corning, NY, cat. 354248) for the first three passages. All PDCs were cultured in complete DMEM/F-12 media containing advanced DMEM/F-12 (Invitrogen, cat. 12634028), 4.9% defined fetal bovine serum, heat inactivated (HyClone Laboratories Inc., Logan, UT, cat. SH30070.03HI), 389 ng/mL hydrocortisone (Sigma-Aldrich, cat. H4001), 9.7 ng/mL human EGF recombinant protein (Invitrogen, cat. PHG0313), 23.4 microg/mL adenine (Sigma-Aldrich, cat. A2786), 97.3 U/mL penicillin-streptomycin (Invitrogen, cat. 15140122), 1.9 mM L-glutamine (Invitrogen, cat. 25030081), and 9.7 microM Y-27632 dihydrochloride (Tocris Bioscience, Bristol, United Kingdom, cat. 1254). The PDCs were cultured in complete DMEM/F12 media without 10 microM Y-27632 dihydrochloride for at least two passages prior to the screen. The established cell lines NCI-H1341 and […] were cultured in DMEM/F-12, HEPES (Invitrogen, cat. 11330032), 5% defined fetal bovine serum (HyClone Laboratories Inc., cat. SH30070.03), ITS premix universal culture supplement [insulin (5 microg/mL), transferrin (5 microg/mL), and selenious acid (5 ng/mL)] […]
# [1] = curve of first compound, second compound 0.1 µM
# [2] = curve of first compound, second compound 0.316 µM
# [3] = curve of first compound, second compound 1 µM
# [4] = curve of first compound, second compound 3.16 µM
# [5] = curve of first compound, second compound 10 µM
# [6] = second compound 0.1 µM, first compound 0.00316 µM
# [7] = second compound 0.1 µM, first compound 0.01 µM
# [8] = second compound 0.1 µM, first compound 0.0316 µM
# [9] = second compound 0.1 µM, first compound 0.1 µM
# [10] = second compound 0.316 µM, first compound 0.00316 µM
# [11] = second compound 0.316 µM, first compound 0.01 µM
# [12] = second compound 0.316 µM, first compound 0.0316 µM
# [13] = second compound 0.316 µM, first compound 0.1 µM
# [14] = second compound 1 µM, first compound 0.00316 µM
# [15] = second compound 1 µM, first compound 0.01 µM
# [16] = second compound 1 µM, first compound 0.0316 µM
# [17] = second compound 1 µM, first compound 0.1 µM
# [18] = second compound 3.16 µM, first compound 0.00316 µM
# [19] = second compound 3.16 µM, first compound 0.01 µM
# [20] = second compound 3.16 µM, first compound 0.0316 µM
# [21] = second compound 3.16 µM, first compound 0.1 µM
# [22] = second compound 10 µM, first compound 0.00316 µM
# [23] = second compound 10 µM, first compound 0.01 µM
# [24] = second compound 10 µM, first compound 0.0316 µM
# [25] = second compound 10 µM, first compound 0.1 µM
# [26] = second compound 0.1 µM, first compound 0.316 µM
# [27] = second compound 0.1 µM, first compound 1 µM
# [28] = second compound 0.316 µM, first compound 0.316 µM
# [29] = second compound 0.316 µM, first compound 1 µM
# [30] = second compound 1 µM, first compound 0.316 µM
# [31] = second compound 1 µM, first compound 1 µM
# [32] = second compound 3.16 µM, first compound 0.316 µM
# [33] = second compound 3.16 µM, first compound 1 µM
# [34] = second compound 10 µM, first compound 0.316 µM
# [35] = second compound 10 µM, first compound 1 µM
# 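Further: spheroids exposed to agents for seven days.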
smiles,measurement,setting,value
CC[C@@]1(O)C(=O)OCc2c1cc1n(c2=O)Cc2cc3c(CN(C)C)c(O)ccc3nc2-1 + Cc1cncc(-c2nc(NCCc3c[nH]c4ccccc34)c3ncn(C(C)C)c3n2)c1,IC50,[1],34.2 nM
same,IC50,[2],26.8 nM
same,IC50,[3],30.1 nM
same,IC50,[4],47.3 nM
same,IC50,[5],4.63 nM
same,"viability, T/C","second compound 0.1 µM, first compound 0.000316 µM",100%
same,"viability, T/C","second compound 0.1 µM, first compound 0.001 µM",86.7%
same,"viability, T/C",[6],88.2%
same,"viability, T/C",[7],70%
same,"viability, T/C",[8],49.5%
same,"viability, T/C",[9],40.4%
same,"viability, T/C","second compound 0.316 µM, first compound 0.000316 µM",95.4%
same,"viability, T/C","second compound 0.316 µM, first compound 0.001 µM",93.2%
same,"viability, T/C",[10],83%
same,"viability, T/C",[11],72.8%
same,"viability, T/C",[12],44.6%
same,"viability, T/C",[13],33.7%
same,"viability, T/C","second compound 1 µM, first compound 0.000316 µM",106%
same,"viability, T/C","second compound 1 µM, first compound 0.001 µM",117%
same,"viability, T/C",[14],95%
same,"viability, T/C",[15],72.3%
same,"viability, T/C",[16],51.4%
same,"viability, T/C",[17],36.3%
same,"viability, T/C","second compound 3.16 µM, first compound 0.000316 µM",112%
same,"viability, T/C","second compound 3.16 µM, first compound 0.001 µM",106%
same,"viability, T/C",[18],91.5%
same,"viability, T/C",[19],77.4%
same,"viability, T/C",[20],57.5%
same,"viability, T/C",[21],36.2%
same,"viability, T/C","second compound 10 µM, first compound 0.000316 µM",55.2%
same,"viability, T/C","second compound 10 µM, first compound 0.001 µM",64.4%
same,"viability, T/C",[22],54.6%
same,"viability, T/C",[23],39.3%
same,"viability, T/C",[24],34.1%
same,"viability, T/C",[25],28.5%
Nc1ncn(C2CC(O)C(CO)O2)c(=O)n1 (centres undefined) + Cc1ccccc1N=Nc1ccc(NC(=O)c2ccnn2C)c(C)c1,IC50,[1],> 1000 nM
same,IC50,[2],> 1000 nM
same,IC50,[3],> 1000 nM
same,IC50,[4],> 1000 nM
same,IC50,[5],> 1000 nM
same,"viability, T/C",[6],97.5%
same,"viability, T/C",[7],99.3%
same,"viability, T/C",[8],95.5%
same,"viability, T/C",[9],87.5%
same,"viability, T/C",[26],79.9%
same,"viability, T/C",[27],76.9%
same,"viability, T/C",[10],100%
same,"viability, T/C",[11],93.8%
same,"viability, T/C",[12],80.8%
same,"viability, T/C",[13],83.2%
same,"viability, T/C",[28],81.1%
same,"viability, T/C",[29],71.7%
same,"viability, T/C",[14],87.5%
same,"viability, T/C",[15],94.6%
same,"viability, T/C",[16],88%
same,"viability, T/C",[17],93.3%
same,"viability, T/C",[30],78.9%
same,"viability, T/C",[31],78.1%
same,"viability, T/C",[18],88.6%
same,"viability, T/C",[19],92.9%
same,"viability, T/C",[20],88%
same,"viability, T/C",[21],77.8%
same,"viability, T/C",[32],84.7%
same,"viability, T/C",[33],72.7%
same,"viability, T/C",[22],84.3%
same,"viability, T/C",[23],78.7%
same,"viability, T/C",[24],82.7%
same,"viability, T/C",[25],78.6%
same,"viability, T/C",[34],77.5%
same,"viability, T/C",[35],70.8%
COc1cc(C2c3cc4c(cc3C(OC3OC5COC(C)OC5C(O)C3O)C3COC(=O)C23)OCO4)cc(OC)c1O (centres undefined) + CC(CO)NC(=O)c1cc(-c2ccc(Cl)cc2)nn(-c2cnn(C)c2)c1=O,IC50,[1],1270 nM
same,IC50,[2],894 nM
same,IC50,[3],944 nM
same,IC50,[4],823 nM
same,IC50,[5],846 nM
same,"viability, T/C",[8],87.5%
same,"viability, T/C",[9],79.2%
same,"viability, T/C",[26],73.9%
same,"viability, T/C",[27],51.9%
same,"viability, T/C","second compound 0.1 µM, first compound 3.16 µM",37.8%
same,"viability, T/C","second compound 0.1 µM, first compound 10 µM",28.9%
same,"viability, T/C",[12],82.3%
same,"viability, T/C",[13],85.8%
same,"viability, T/C",[28],63.5%
same,"viability, T/C",[29],48.4%
same,"viability, T/C","second compound 0.316 µM, first compound 3.16 µM",36.5%
same,"viability, T/C","second compound 0.316 µM, first compound 10 µM",26.6%
same,"viability, T/C",[16],86.5%
same,"viability, T/C",[17],80.2%
same,"viability, T/C",[30],77.2%
same,"viability, T/C",[31],48%
same,"viability, T/C","second compound 1 µM, first compound 3.16 µM",34.7%
same,"viability, T/C","second compound 1 µM, first compound 10 µM",30.2%
same,"viability, T/C",[20],79.4%
same,"viability, T/C",[21],80.9%
same,"viability, T/C",[32],72.5%
same,"viability, T/C",[33],44.1%
same,"viability, T/C","second compound 3.16 µM, first compound 3.16 µM",42.8%
same,"viability, T/C","second compound 3.16 µM, first compound 10 µM",28.8%
same,"viability, T/C",[24],83.2%
same,"viability, T/C",[25],83%
same,"viability, T/C",[34],62.6%
same,"viability, T/C",[35],49.4%
same,"viability, T/C","second compound 10 µM, first compound 3.16 µM",31.6%
same,"viability, T/C","second compound 10 µM, first compound 10 µM",25.6%
Nc1ccccc1NC(=O)c1ccc(CNC(=O)OCc2cccnc2)cc1,"viability, T/C",compound 0.0316 µM,98% and 89.6% and 98.3%
same,"viability, T/C",compound 0.1 µM,102% and 87.1% and 81%
same,"viability, T/C",compound 0.316 µM,83% and 80.2% and 77.3%
same,"viability, T/C",compound 1 µM,81% and 70.5% and 65.6%
same,"viability, T/C",compound 3.16 µM,57.5% and 63.4% and 69.3%
same,"viability, T/C",compound 10 µM,16% and 12.8% and 13.9%
same,IC50,curve of compound,3840 nM and 3930 nM and 4020 nM
CC1COCCN1c1cc(-c2ccnn2C)c2ccnc(-c3ccn[nH]3)c2n1 (centres undefined),"viability, T/C",compound 0.00316 µM,97.3% and 102% and 106%
same,"viability, T/C",compound 0.01 µM,92.7% and 98.5% and 104%
same,"viability, T/C",compound 0.0316 µM,77.3% and 77.9% and 90.3%
same,"viability, T/C",compound 0.1 µM,58.7% and 58.6% and 62.5%
same,"viability, T/C",compound 0.316 µM,32.9% and 34% and 41.3%
same,"viability, T/C",compound 1 µM,24% and 30.5% and 29.1%
same,IC50,curve of compound,141 nM and 142 nM and 194 nM
